Experimental data taken from patent US20010046987A1, “Oxazolidinones having a sulfoximine functionality” (priority 1999, published 2001).
In brackets after ≈: the same amount, converted by molar mass.

Assays:
Streptococcus pneumoniae = test: MIC by agar dilution, SPNE 9912; assay type: cell-based; conditions: Streptococcus pneumoniae, strain SPNE 9912, read-out: Antibacterial Activity Minimum Inhibitory Concentration SPNE 9912
Description: (§1) The in vitro activity of compounds of this invention can be assessed by standard testing procedures such as the determination of minimum inhibitory concentration (MIC) by agar dilution as described in “Approved Standard.

Streptococcus pyogenes = test: MIC by agar dilution, SPYO 152; assay type: cell-based; conditions: Streptococcus pyogenes, strain SPYO 152, read-out: Antibacterial Activity Minimum Inhibitory Concentration SPYO 152
Description: as §1

[1] = test system: Staphylococcus epidermidis; test: MIC by agar dilution, SEPI 30593; assay type: cell-based; conditions: Staphylococcus epidermidis, strain SEPI 30593, read-out: Antibacterial Activity Minimum Inhibitory Concentration SEPI 30593
Description: as §1

Enterococcus faecalis = test: MIC by agar dilution, EFAE 9217; assay type: cell-based; conditions: Enterococcus faecalis, strain EFAE 9217, read-out: Antibacterial Activity Minimum Inhibitory Concentration EFAE 9217
Description: as §1

Moraxella catarrhalis = test: MIC by agar dilution, MCAT 30607; assay type: cell-based; conditions: Moraxella catarrhalis, strain MCAT 30607, read-out: Antibacterial Activity Minimum Inhibitory Concentration MCAT 30607
Description: as §1

Enterococcus faecium = test: MIC by agar dilution, EFAE 12712; assay type: cell-based; conditions: Enterococcus faecium, strain EFAE 12712, read-out: Antibacterial Activity Minimum Inhibitory Concentration EFAE 12712
Description: as §1

H. influenzae = test: MIC by agar dilution, HINF 30063; assay type: cell-based; conditions: Haemophilus influenzae, strain HINF 30063, read-out: Antibacterial Activity Minimum Inhibitory Concentration HINF 30063
Description: as §1

Staphylococcus aureus = test: MIC by agar dilution, SAUR 9213; assay type: cell-based; conditions: Staphylococcus aureus, strain SAUR 9213, read-out: Antibacterial Activity Minimum Inhibitory Concentration SAUR 9213
Description: as §1

MIC (Streptococcus pneumoniae) [µg/mL] | MIC (Streptococcus pyogenes) [µg/mL] | MIC [1] [µg/mL] | MIC (Enterococcus faecalis) [µg/mL] | MIC (Moraxella catarrhalis) [µg/mL] | MIC (Enterococcus faecium) [µg/mL] | MIC (H. influenzae) [µg/mL] | MIC (Staphylococcus aureus) [µg/mL] | melting point | Structure (SMILES)
0.25 (≈ 0.569 µM) | 0.5 (≈ 1.14 µM) | 0.5 (≈ 1.14 µM) | 0.5 (≈ 1.14 µM) | 2 (≈ 4.55 µM) | 1 (≈ 2.27 µM) | 4 (≈ 9.1 µM) | 1 (≈ 2.27 µM) | 201 to 202 °C (dec.) | C[N-][S+2]1([O-])CCC(c2ccc(N3CC(CNC(=S)C4CC4)OC3=O)cc2F)CC1 [Example 29, N-({(5S)-3-[3-Fluoro-4-[1-(methylimino)-1-oxidohexahydro-1λ^4-thiopyran-4-yl]phenyl]-2-oxo-1,3-oxazolidin-5-yl}methyl)cyclopropanecarbothioamide, Z-isomer]
0.5 (≈ 1.13 µM) | 0.5 (≈ 1.13 µM) | 1 (≈ 2.26 µM) | 1 (≈ 2.26 µM) | 2 (≈ 4.53 µM) | 1 (≈ 2.26 µM) | 8 (≈ 18.1 µM) | 2 (≈ 4.53 µM) | 200 to 201 °C | CC[N-][S@+2]1([O-])CC[C@@H](c2ccc(N3C[C@H](CNC(=S)CC)OC3=O)cc2F)CC1 [Example 15, N-({(5S)-3-[3-Fluoro-4-[1-(ethylimino)-1-oxidohexahydro-1λ^4-thiopyran-4-yl]phenyl]-2-oxo-1,3-oxazolidin-5-yl}methyl)propanethioamide, Z-isomer]
0.25 (≈ 0.531 µM) | 0.5 (≈ 1.06 µM) | 2 (≈ 4.25 µM) | 0.5 (≈ 1.06 µM) | 4 (≈ 8.5 µM) | 1 (≈ 2.12 µM) | 4 (≈ 8.5 µM) | 2 (≈ 4.25 µM) | 221 to 222 °C | CCC(=S)NC[C@H]1CN(c2ccc([C@H]3CC[S@+2]([O-])([N-]CC(N)=O)CC3)c(F)c2)C(=O)O1 [Example 23, N-({(5S)-3-[3-Fluoro-4-[1-[[(aminocarbonyl)methyl]imino]-1-oxidohexahydro-1λ^4-thiopyran-4-yl]phenyl]-2-oxo-1,3-oxazolidin-5-yl}methyl)propanethioamide, Z-isomer]
0.5 (≈ 0.94 µM) | 1 (≈ 1.88 µM) | 2 (≈ 3.76 µM) | 1 (≈ 1.88 µM) | 2 (≈ 3.76 µM) | 2 (≈ 3.76 µM) | > 64 | 2 (≈ 3.76 µM) | 165.5 to 167 °C | CCC(=S)NCC1CN(c2ccc(C3CC[S+2]([O-])([N-]CCCc4ccccc4)CC3)c(F)c2)C(=O)O1 [Example 17, N-({(5S)-3-[3-Fluoro-4-[1-[(3-phenylpropyl)imino]-1-oxidohexahydro-1λ^4-thiopyran-4-yl]phenyl]-2-oxo-1,3-oxazolidin-5-yl}methyl)propanethioamide, Z-isomer]
< 0.06 | 0.125 (≈ 0.216 µM) | 0.25 (≈ 0.433 µM) | 0.25 (≈ 0.433 µM) | 0.25 (≈ 0.433 µM) | 0.25 (≈ 0.433 µM) | > 64 | 0.5 (≈ 0.866 µM) | 222 to 228 °C | CCC(=S)NCC1CN(c2ccc(C3CC[S+2]([O-])([N-]C(=O)Nc4ccc([N+](=O)[O-])cc4)CC3)c(F)c2)C(=O)O1 [Example 21, N-({(5S)-3-[3-Fluoro-4-(1-{[[(4-nitrophenyl)amino]carbonyl]imino}-1-oxidohexahydro-1λ^4-thiopyran-4-yl)phenyl]-2-oxo-1,3-oxazolidin-5-yl}methyl)propanethioamide, Z-isomer]

Structure (SMILES) | MIC (Streptococcus pneumoniae) [µg/mL] | MIC (Streptococcus pyogenes) [µg/mL] | MIC [1] [µg/mL] | MIC (Enterococcus faecalis) [µg/mL] | MIC (Moraxella catarrhalis) [µg/mL] | MIC (Enterococcus faecium) [µg/mL] | MIC (H. influenzae) [µg/mL] | MIC (Staphylococcus aureus) [µg/mL] | melting point
CCC(=S)NCC1CN(c2ccc(C3CC[S+2]([O-])([N-]C(=O)NC)CC3)c(F)c2)C(=O)O1 [Example 18, N-({(5S)-3-[3-Fluoro-4-(1-{[(methylamino)carbonyl]imino}-1-oxidohexahydro-1λ^4-thiopyran-4-yl)phenyl]-2-oxo-1,3-oxazolidin-5-yl}methyl)propanethioamide, Z-isomer] | 0.25 (≈ 0.531 µM) | 0.5 (≈ 1.06 µM) | 1 (≈ 2.12 µM) | 1 (≈ 2.12 µM) | 4 (≈ 8.5 µM) | 1 (≈ 2.12 µM) | 8 (≈ 17 µM) | 2 (≈ 4.25 µM) | 203 to 204 °C
CCC(=S)NC[C@H]1CN(c2ccc([C@H]3CC[S@+2]([O-])([N-]C(N)=O)CC3)c(F)c2)C(=O)O1 [Example 22, N-({(5S)-3-[3-Fluoro-4-[1-[(aminocarbonyl)imino]-1-oxidohexahydro-1λ^4-thiopyran-4-yl]phenyl]-2-oxo-1,3-oxazolidin-5-yl}methyl)propanethioamide, Z-isomer] | 0.125 (≈ 0.274 µM) | 0.5 (≈ 1.1 µM) | 0.05 (≈ 0.11 µM) | 0.5 (≈ 1.1 µM) | 2 (≈ 4.38 µM) | 0.5 (≈ 1.1 µM) | 4 (≈ 8.76 µM) | 2 (≈ 4.38 µM) | 236 to 238 °C (dec.)
CCC(=S)NCC1CN(c2ccc(C3CC[S+2]([O-])([N-]Cc4ccccc4)CC3)c(F)c2)C(=O)O1 [Example 16, N-({(5S)-3-[3-Fluoro-4-[1-[(phenylmethyl)imino]-1-oxidohexahydro-1λ^4-thiopyran-4-yl]phenyl]-2-oxo-1,3-oxazolidin-5-yl}methyl)propanethioamide, Z-isomer] | 0.25 (≈ 0.496 µM) | 0.5 (≈ 0.993 µM) | 1 (≈ 1.99 µM) | 1 (≈ 1.99 µM) | 2 (≈ 3.97 µM) | 1 (≈ 1.99 µM) | > 64 | 2 (≈ 3.97 µM) | 207 to 208 °C
